Experiments:
[1] = Withdrawal by means of plasma exchange (comparative): methadone, methadone metabolites and thebaine measured in urine; details: for Substance measured in urine: before 1. PE / before therapy; for concentration at 1 day / concentration at 2 day / concentration at 3 day / concentration at 4 day / concentration at 5 day / concentration at 6 day / concentration at 7 day / concentration at 17 day / concentration at 24 day / concentration at 31 day: human, in vivo
Source text: In the withdrawal therapy of a methadone addict, one of the inventors has practised the method of plasma exchange (PE) for assisting and accelerating the removal of methadone from the body, i.e., blood was taken from the patient, the cellular components were separated and re-infused into the body, and instead of the patient's own plasma portion, the plasma of a donor was supplied.
The patient was 2 x connected to the plasmapheresis (1st and 3rd day). […] Besides, the coagulation parameters were measured because of the hypercoagulability.

[2] = test system: patient in methadone withdrawal; experiment: Methadone withdrawal by administration of α1-acid glycoprotein: clinical course; format: in vivo, human (patient)
Experimental: The patient's circulation is stable, the patient is co-operative, a venous cannula and a peripheral venous catheter on the left side are set. Immediately after admission, beginning of sedation with Dormicum 0.4 mg/kg/d, Clonidin 0.02 mg/kg/d. Dormicum bolus administration at admission.
Volume substitution with Elohaest, human albumin and electrolyte solution.
From 4:05 p.m. to 4:15 p.m., renewed hemodilution: 400 ml of own blood was drawn.
Urinating is without any problems and spontaneous.
The patient's only problems are nicotine withdrawal.
Therapy with Clonidin and Dormicum is changed to oral (4×0.075 mg Catapresan and 4×7.5 mg Dormicum per os) with sufficient magnesium substitution in addition. Subjectively, the patient feels well and is free from any discomfort.
Removal of the peripheral venous catheter, continuation of the oral therapy, the patient is moved to the LNKH while being in a good general state and subjectively feeling well.

[3] = test system: isolated perfused rat livers; details: protein added to perfusate; cited from earlier work

Row | Compound | Substance measured in urine [1] [µg/mL] | concentration at 1 day [1] [ng/mL] | concentration at 2 day [1] [ng/mL] | concentration at 3 day [1] [ng/mL] | concentration at 4 day [1] [ng/mL] | concentration at 5 day [1] [ng/mL] | concentration at 6 day [1] [ng/mL] | concentration at 7 day [1] [ng/mL] | concentration at 17 day [1] [ng/mL] | concentration at 24 day [1] [ng/mL] | concentration at 31 day [1] [ng/mL] | tolerability after first administration ([2]; 3 grams in 500 ml of infusion solution at 10 a.m.) | acute reaction after second administration ([2]; 6 grams in merely 150 ml of infusion solution at 4:30 p.m.) | physical withdrawal symptoms ([2]; 9/20/97, day after AAG administration) | physical withdrawal symptoms ([2]; 9/21/97, second day after AAG administration) | withdrawal symptoms after AAG administration ([2]; after the short crisis following the 2nd partial amount) | total time until treatment could be terminated ([2]; methadone withdrawal with AAG, 2nd patient) | influence on elimination of drugs capable of being bound [3] | influence on elimination of nonbinding drugs [3]
1 | CCC(=O)C(CC(C)N(C)C)(c1ccccc1)c1ccccc1 (racemic) [methadone, reference compound] | 15 | 3000 | 1900 | 500 | 500 | 400 | 300 | 500 | 0 | 0 | 0 |  |  |  |  |  |  |  | 
2 | α1-acid glycoprotein |  |  |  |  |  |  |  |  |  |  |  | first symptoms with slight sweating, otherwise no problems so far | symptoms of an acute reaction, similar to an allergy | no physical withdrawal symptoms | no particular physical withdrawal symptoms | intensive recovery phase without any withdrawal symptoms | three | slowed down | no influence
3 | COC1=CC=C2[C@H]3Cc4ccc(OC)c5c4[C@@]2(CCN3C)[C@H]1O5 [thebaine] | 7 | 0 | 0 | 0 | 0 | 0 | 0 | 0 | 0 | 0 | 0 |  |  |  |  |  |  |  | 

— patent US20020147137A1, “Medical use of alpha1-acid glycoprotein (AAG) or orosomucoid” (Hamosan Erzeugung Pharmazeutischer Grundstoffe Gesellschaft …, priority 1999, published 2002)
